The record followed here is patent publication US12544384B2, “Antibiotic conjugates” (priority 2018, dated 2026).

One assay deals with E. coli DC0. As to the kind of experiment: MIC against other Gram-negative bacteria. To be noted: for Antibacterial activity (in words): Escherichia coli DC0; for MIC: Escherichia coli, DC0, read-out: Activity (MIC).
The subject of another assay is A. baumannii ATCC 17978. Nature of the assay: MIC, antimicrobial susceptibility assay in iron depleted media. The assay is classed as cell-based, Acinetobacter baumannii. To be noted: for Antibacterial activity (in words): A. baumannii ATCC 17978, low amount of ADC-1; for MIC: Acinetobacter baumannii, ATCC17978, A. baumannii ATCC 17978, small amount of chromosomal ADC-1, iron depleted media, average of three measurements. The source says: (§1) For this purpose, A. baumannii ATCC 17978, which produces a small amount of the chromosomally-encoded enzyme, and the same strain that produces a large amount of ADC-1 from the pNT255 vector were used (Table 1).

Another assay relates to P. aeruginosa KW799/wt. As to the kind of experiment: MIC against other Gram-negative bacteria. As to conditions: for Antibacterial activity (in words): Pseudomonas aeruginosa KW799.
Assay [1] deals with A. baumannii ATCC 17978 pNT255. Nature of the assay: MIC, antimicrobial susceptibility assay, strain with pNT255 vector. The assay is classed as cell-based. As to conditions: Acinetobacter baumannii, ATCC17978, read-out: Activity (MIC).
From the text: as §1

For a further assay, the system named is ADC-1 β-lactamase. As to the kind of experiment: Enzymatic hydrolysis by ADC-1, LC/MS. Type of assay: biochemical, A. baumannii. To be noted: 20 μM compound, 20 μM ADC-1, 50 mM sodium phosphate pH 7.4, room temperature, 40 min. The method, then:
With the final siderophore-cephalosporin-oxazolidinone conjugate (1) along with the separate cephalosporin and oxazolidinone conjugates (26 and 27) as well as the corresponding cephalosporin (23), oxazolidinone (3) and eperezolid (17) available, enzymatic and anti-bacterial assays were performed to test the susceptibility of conjugate (1) to the hydrolytic activity of β-lactamases from Gram-negative bacteria. Thus, assays were conducted to evaluate whether the oxazolidinone could be efficiently released from the final siderophore-cephalosporin-oxazolidinone conjugate (1) as a result of cephalosporin hydrolysis by a β-lactamase. For this purpose, one of the ADC-type β-lactamases (ADC-1) was chosen as ADC enzymes are intrinsic to A. baumannii, an important clinical pathogen, and are capable of hydrolyzing cephalosporin antibiotics.
The ADC-1 β-lactamase was expressed and purified as previously described (Bhattacharya et al., Acta Crystallogr., Sect. D: Biol. Crystallogr., 2014, 70, 760-771). Conjugate 1 (10 mM in DMSO) was diluted 5-fold in DMSO and then another 10-fold in 50 mM sodium phosphate, pH 7.4 to give a 200 μM solution with 10% DMSO. Subsequently, a 60 μL reaction was prepared consisting of 20 μM of 1 (6 μL of a 200 μM solution) and 20 μM ADC-1 β-lactamse (8.1 μL of 148 μM enzyme) in 50 mM sodium phosphate, pH 7.4 (the final concentration of DMSO was 1%). […]

Assay [2] relates to A. baumannii ATCC BAA 1793. Nature of the assay: MIC against clinical isolate. The assay is classed as cell-based, Acinetobacter baumannii. As to conditions: for MIC: Acinetobacter baumannii; for Antibacterial activity (in words): clinical isolate ATCC BAA1793. On the procedure: (§2) Subsequently, the activities of the disclosed compounds were evaluated against four clinical isolates of A. baumannii (ATCC 17961, ATCC BAA1793, ATCC BAA1797 and ATTC BAA1800). All four A. baumannii isolates were resistant to compounds 3, 22, 23, and 27. Strain ATCC 17961 was susceptible to both 26 and 1, indicating lack of or low β-lactamase content and/or activity.

Assay [3] concerns A. baumannii ATCC BAA 1800. As to the kind of experiment: MIC against clinical isolate. As to conditions: for MIC: Acinetobacter baumannii; for Antibacterial activity (in words): clinical isolate ATCC BAA1800. The assay is classed as cell-based, Acinetobacter baumannii. On the procedure:
as §2

For assay [4], the system named is A. baumannii ATCC BAA 1797. As to the kind of experiment: MIC against clinical isolate. To be noted: for MIC: Acinetobacter baumannii; for Antibacterial activity (in words): clinical isolate ATCC BAA1797. The assay is classed as cell-based, Acinetobacter baumannii. The method, then: as §2
The test system of the next assay is A. baumannii ATCC 17961. Nature of the assay: MIC against clinical isolate. As to conditions: for MIC: Acinetobacter baumannii; for Antibacterial activity (in words): clinical isolate ATCC 17961. Type of assay: cell-based, Acinetobacter baumannii. The method, then:
as §2

Assay [5] relates to A. baumannii ATCC 17978 pNT225: ADC-1. As to the kind of experiment: MIC, antimicrobial susceptibility assay, strain with plasmid-encoded ADC-1 β-lactamase. The assay is classed as cell-based, Acinetobacter baumannii. As to conditions: for MIC: Acinetobacter baumannii, ATCC17978, read-out: Activity (MIC).
From the text: as §1

Setting [6] is: Pseudomonas aeruginosa, KW799/WT, read-out: Activity (MIC).
Setting [7] is: BAA1793, read-out: Activity (MIC).
The mark [8] stands for this setting: BAA1800, read-out: Activity (MIC).
Where [9] appears, read: BAA1797, read-out: Activity (MIC).
Setting [10] is: ATCC17961, read-out: Activity (MIC).
Setting [11] is: BAA1793, A. baumannii ATCC BAA 1793, read-out: Activity (MIC).
The mark [12] stands for this setting: BAA1800, A. baumannii ATCC BAA 1800, read-out: Activity (MIC).
Setting [13] is: BAA1797, A. baumannii ATCC BAA 1797, read-out: Activity (MIC).
The mark [14] stands for this setting: ATCC17961, A. baumannii ATCC 17961, read-out: Activity (MIC).

Values after ≈ are worked out from the molar mass of the structure shown. Where two headings read alike, the source gives them in different places.

Description for E. coli DC0: (§3) This plasmid was then introduced by electroporation into A. baumannii ATCC 17978 for MIC measurements. MIC analyses were performed using iron depleted media as described previously (Ghosh, J. Med. Chem., 2017, 60, 4577-4583).
Description for P. aeruginosa KW799/wt: as §3

As to `CC(=O)NC[C@H]1CN(c2ccc(N3CCN(C(=O)CNC(=O)OCC4=C(C(=O)O)N5C(=O)[C@@H](NC(=O)C(NC(=O)CN(CCCCNC(=O)c6cccc(O)c6O)C(=O)c6cccc(O)c6O)c6ccccc6)[C@H]5SC4)CC3)c(F)c2)C(=O)O1` (stereo partly drawn) [Compound 1, (6R,7R)-3-((((2-(4-(4-((S)-5-(Acetamidomethyl)-2-oxooxazolidin-3-yl)-2-fluorophenyl)piperazin-1-yl)-2-oxoethyl)carbamoyl)oxy)methyl)-7-(2-(2-(N-(4-(2,3-dihydroxybenzamido)butyl)-2,3-dihydroxybenzamido)acetamido)-2-phenylacetamido)-8-oxo-5-thia-1-azabicyclo[4.2.0]oct-2-ene-2-carboxylic acid], the “Antibacterial activity (in words)” value with E. coli DC0 was “remarkably active”; in the assay on A. baumannii ATCC 17978 it was “similarly potent activity”; with P. aeruginosa KW799/wt, “remarkably active”; in assay [2] it was “very active”; in [3], “very active”; in assay [4] it was “very active”. For the same compound, in the assay on A. baumannii ATCC 17961, the “Antibacterial activity (in words)” value is recorded as “susceptible”. For the same compound, the MIC in the assay with E. coli DC0 was less than 0.025 µM; against A. baumannii ATCC 17978, 0.4 µM (≈ 0.473 µg/mL); in the assay with P. aeruginosa KW799/wt (setting [6]) it was 0.2 to 0.4 µM (≈ 0.237 to 0.473 µg/mL); in [1], 0.4 µM (≈ 0.473 µg/mL); in assay [2] (setting [7]), 0.8 to 1.6 µM (≈ 0.947 to 1.89 µg/mL); in [3] (setting [8]), 0.8 µM (≈ 0.947 µg/mL). The MIC is 6.25 µM (≈ 7.39 µg/mL) in [4] (setting [9]), 0.8 µM (≈ 0.947 µg/mL) in the assay on A. baumannii ATCC 17961 (setting [10]) and 6 µM (≈ 7.1 µg/mL) in [5]. Further, the “Hydrolysis by purified ADC-1 and release of oxazolidinone” value in the assay on ADC-1 β-lactamase was “rapid and complete hydrolysis and release of the oxazolidinone”. Moreover, in assay [5] (A. baumannii with plasmid-encoded β-lactamase, versus 26), the “Decrease of MIC compared to the siderophore-cephalosporin” value is “at least 8 fold”.
Take `CC(=O)NC[C@H]1CN(c2ccc(N3CCN(C(=O)CN)CC3)c(F)c2)C(=O)O1` [Compound 3, (S)—N-((3-(3-Fluoro-4-(4-glycylpiperazin-1-yl)phenyl)-2-oxooxazolidin-5-yl)methyl)acetamide]: the “Antibacterial activity (in words)” value in the assay with E. coli DC0 is listed as “not active”; in the assay on A. baumannii ATCC 17978, “not active”; in the assay with P. aeruginosa KW799/wt, “not active”; in assay [2], “resistant”; in [3] it was “resistant”; in assay [4] it was “resistant”. Besides, the “Antibacterial activity (in words)” value in the assay with A. baumannii ATCC 17961 is “resistant”. The MIC with E. coli DC0 was greater than 50 µM; in the assay on A. baumannii ATCC 17978, greater than 500 µM; with P. aeruginosa KW799/wt (setting [6]) it was greater than 50 µM; in assay [1], greater than 500 µM; in assay [2] (setting [7]) it was greater than 50 µM; in assay [3] (setting [8]), greater than 50 µM. Moreover, the figures for the MIC (in assay [4] (setting [9]); with A. baumannii ATCC 17961 (setting [10]); in assay [5]) were greater than 50 µM, greater than 50 µM and greater than 500 µM, respectively.
With `CC(=O)NC[C@H]1CN(c2ccc(N3CCN(C(=O)CO)CC3)c(F)c2)C(=O)O1` [Compound 17, eperezolid, reference compound], the “Antibacterial activity (in words)” value with A. baumannii ATCC 17978 is listed as “not active”. Further, the MIC (in the assay on A. baumannii ATCC 17978; in assay [1]; in assay [5]) was greater than 50 µM each time.
In the case of `CC(=O)NC[C@H]1CN(c2ccc(N3CCN(C(=O)CNC(=O)OCC4=C(C(=O)O)N5C(=O)[C@@H](NC(=O)C(N)c6ccccc6)[C@H]5SC4)CC3)c(F)c2)C(=O)O1` (stereo partly drawn) [Compound 22, (6R,7R)-3-((((2-(4-(4-((S)-5-(Acetamidomethyl)-2-oxooxazolidin-3-yl)-2-fluorophenyl)piperazin-1-yl)-2-oxoethyl)carbamoyl)oxy)methyl)-7-(2-amino-2-phenylacetamido)-8-oxo-5-thia-1-azabicyclo[4.2.0]oct-2-ene-2-carboxylic acid], the “Antibacterial activity (in words)” value with E. coli DC0 is listed as “not active”; in the assay on A. baumannii ATCC 17978 it was “not active”; in the assay with P. aeruginosa KW799/wt, “not active”; in assay [2], “resistant”; in [3], “resistant”; in [4], “resistant”. Also, in the assay on A. baumannii ATCC 17961, the “Antibacterial activity (in words)” value is “resistant”. Moreover, the MIC (in the assay on E. coli DC0; with A. baumannii ATCC 17978; with P. aeruginosa KW799/wt (setting [6]); in [1]; in assay [2] (setting [11]); in assay [3] (setting [12])) was greater than 50 µM each time. Further, the MIC (in [4] (setting [13]); with A. baumannii ATCC 17961 (setting [14]); in assay [5]) was greater than 50 µM each time.
With `CC(=O)OCC1=C(C(=O)O)N2C(=O)[C@@H](NC(=O)C(NC(=O)CN(CCCCNC(=O)c3cccc(O)c3O)C(=O)c3cccc(O)c3O)c3ccccc3)[C@H]2SC1` (stereo partly drawn) [Compound 26, (6R,7R)-3-(Acetoxymethyl)-7-(2-(2-(N-(4-(2,3-dihydroxybenzamido)butyl)-2,3-dihydroxybenzamido)acetamido)-2-phenylacetamido)-8-oxo-5-thia-1-azabicyclo[4.2.0]oct-2-ene-2-carboxylic acid], the “Antibacterial activity (in words)” value in the assay on E. coli DC0 was “remarkably active”; in the assay with A. baumannii ATCC 17978 it was “remarkably active”; in the assay on P. aeruginosa KW799/wt, “remarkably active”; in assay [2], “detectable activity”; in [3] it was “detectable activity”; in assay [4] it was “resistant”. For the same compound, the “Antibacterial activity (in words)” value with A. baumannii ATCC 17961 is reported as “susceptible”; in assay [5] (A. baumannii with plasmid-encoded β-lactamase (pNT255:adc1)), “highly resistant”. For the same compound, the MIC with E. coli DC0 was less than 0.025 µM; in the assay with A. baumannii ATCC 17978, 0.4 µM (≈ 0.322 µg/mL); with P. aeruginosa KW799/wt (setting [6]), 0.4 µM (≈ 0.322 µg/mL); in the assay on P. aeruginosa KW799/wt (vs P. aeruginosa KW799/wt), 0.4; in [1], 0.4 µM (≈ 0.322 µg/mL); in [2] (setting [11]), 12.5 µM (≈ 10.1 µg/mL). The MIC in [3] (setting [12]) was 25 µM (≈ 20.1 µg/mL); in assay [4] (setting [13]), greater than 50 µM; with A. baumannii ATCC 17961 (setting [14]), 0.8 µM (≈ 0.645 µg/mL); in assay [5], greater than 50 µM.
For `CC(=O)NC[C@H]1CN(c2ccc(N3CCN(C(=O)CNC(=O)CN(CCCCNC(=O)c4cccc(O)c4O)C(=O)c4cccc(O)c4O)CC3)c(F)c2)C(=O)O1` [Compound 27, (S)—N-(2-((2-(4-(4-(5-(Acetamidomethyl)-2-oxooxazolidin-3-yl)-2-fluorophenyl)piperazin-1-yl)-2-oxoethyl)amino)-2-oxoethyl)-N-(4-(2,3-dihydroxybenzamido)butyl)-2,3-dihydroxybenzamide], the “Antibacterial activity (in words)” value with E. coli DC0 was “not active”; in the assay with A. baumannii ATCC 17978, “not active”; in the assay with P. aeruginosa KW799/wt it was “not active”; in assay [2], “resistant”; in [3], “resistant”; in assay [4], “resistant”. Besides, the “Antibacterial activity (in words)” value with A. baumannii ATCC 17961 is reported as “resistant”. The MIC (in the assay with E. coli DC0; in the assay on A. baumannii ATCC 17978; in the assay with P. aeruginosa KW799/wt (setting [6]); in assay [1]; in [2] (setting [7]); in [3] (setting [8])) was greater than 50 µM throughout. Moreover, the MIC (in assay [4] (setting [9]); in the assay with A. baumannii ATCC 17961 (setting [10]); in [5]) was greater than 50 µM each time.
